Reference: patent US4894388A, “Glycosidase inhibitors and use thereof” (priority 1988, dated 1990)

Experiments:
Type in all cases: biochemical
Golgi α-D-mannosidase II = target: T1, Golgi α-D-mannosidase II (Homo sapiens, UniProt Q16706); test: Inhibition of Golgi α-D-mannosidase II in extracts of fibroblasts from a mannosidosis patient; conditions: for inhibition at 1000 µM: 1 mM inhibitor, pH 5.75, mean of 2-4 determinations
T1 construct: activity in extracts of fibroblasts from a patient; endogenous in cells; host or cells: fibroblasts from a mannosidosis patient (extract)
T1 sequence (Q16706 1-1144): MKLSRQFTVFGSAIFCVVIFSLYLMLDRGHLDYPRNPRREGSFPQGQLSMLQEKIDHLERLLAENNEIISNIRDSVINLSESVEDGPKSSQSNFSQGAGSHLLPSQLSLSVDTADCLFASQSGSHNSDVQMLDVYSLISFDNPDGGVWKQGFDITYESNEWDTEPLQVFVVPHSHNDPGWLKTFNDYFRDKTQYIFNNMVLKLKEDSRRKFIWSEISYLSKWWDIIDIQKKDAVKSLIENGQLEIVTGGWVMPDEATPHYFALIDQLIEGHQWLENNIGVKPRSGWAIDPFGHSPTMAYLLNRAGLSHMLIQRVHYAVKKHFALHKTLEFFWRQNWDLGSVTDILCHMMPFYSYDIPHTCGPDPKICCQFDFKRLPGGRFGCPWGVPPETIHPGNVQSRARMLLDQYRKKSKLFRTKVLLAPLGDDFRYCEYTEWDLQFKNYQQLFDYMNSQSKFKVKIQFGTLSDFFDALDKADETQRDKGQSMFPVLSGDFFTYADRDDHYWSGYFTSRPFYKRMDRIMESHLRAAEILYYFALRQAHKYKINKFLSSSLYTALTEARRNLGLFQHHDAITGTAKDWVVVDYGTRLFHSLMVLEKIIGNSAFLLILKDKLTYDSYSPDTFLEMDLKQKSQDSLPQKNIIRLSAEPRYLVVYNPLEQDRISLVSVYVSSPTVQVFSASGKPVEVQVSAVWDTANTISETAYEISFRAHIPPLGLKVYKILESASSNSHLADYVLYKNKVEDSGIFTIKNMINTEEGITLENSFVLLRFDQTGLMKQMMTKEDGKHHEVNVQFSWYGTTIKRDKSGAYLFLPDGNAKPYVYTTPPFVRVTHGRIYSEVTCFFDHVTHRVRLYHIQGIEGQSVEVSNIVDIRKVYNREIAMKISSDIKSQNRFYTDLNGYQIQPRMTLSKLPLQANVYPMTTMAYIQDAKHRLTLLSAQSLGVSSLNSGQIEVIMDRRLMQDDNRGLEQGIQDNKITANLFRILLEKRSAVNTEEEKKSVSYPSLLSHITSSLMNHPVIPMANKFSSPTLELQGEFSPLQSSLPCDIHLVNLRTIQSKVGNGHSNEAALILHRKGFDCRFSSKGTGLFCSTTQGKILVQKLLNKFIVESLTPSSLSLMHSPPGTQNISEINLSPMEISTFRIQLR
Protocol: (§1) The glycosidase activities in an extract of normal human liver were assayed by using the appropriate fluorigenic 4-methylumbelliferyl glycoside substrate (Koch-Light, Haverhill, Suffolk, U.K.) with a concentration of 0.5 mM at the optimal pH of each enzyme [Burditt et al., Clin. Chim. Acta 140, 201-209 (1980)]. Human liver acidic (lysomal) and neutral (cystosolic) α-D-mannosidases were assayed similarly at their pH-optima, of 4.0 and 6.5, respectively, after separation by affinity chromatography on concanavalin A-Sepharose® (Pharmacia Ltd, Milton Keynes, Bucks, U.K.) [Phillips et al., Biochem. J. 153, 579-587 (1976)]. The residual intermediate (Golgi) α-mannosidase II activity in extracts of fibroblasts from a patient with the lysosomal storage disease, mannosidosis, was assayed at pH 5.75 using the synthetic substrate (Burditt et al, Ibid.). The specificity of the inhibitors was determined by assaying the glycosidases in the presence and absence of a 1 mM solution of each compound. The nature of the inhibition and the value of Ki were determined using the Dixon graphical procedure.
(§2) Enzymic activities were measured in the presence and absence of 1 mM inhibitor. Inhibition (%) was calculated as the fraction of activity lost in the presence of inhibitor. The values are means of two to four independent determinations.

N-acetyl hexosaminidase = test: Inhibition of N-acetyl hexosaminidase in human liver extract; conditions: 1 mM inhibitor; 0.5 mM substrate; optimal pH; mean of 2-4 determinations
Protocol: (§3) Post mortem human liver, which had been stored at -20° C. until required was homogenized in deionized water (50%, w/v) in a Potter-Elvehjem homogenizer and then centrifuged at 37,000 g for 30 min in an MSE 18 centrifuge. The resultant supernatant was used as the source of enzymic activities.
as §1, §2

[1] = target: T2, lysosomal (acidic) α-D-mannosidase (Homo sapiens, UniProt O00754); test: Inhibition of lysosomal (acidic) α-D-mannosidase, fluorigenic 4-methylumbelliferyl glycoside substrate; conditions: for inhibition at 1000 µM: 1 mM inhibitor, 0.5 mM substrate, pH 4.0, mean of 2-4 determinations
T2 construct: Post mortem human liver, which had been stored at -20° C; from tissue; host or cells: post mortem human liver, 37,000 g supernatant; concanavalin A-Sepharose fraction
T2 sequence (O00754 50-1011): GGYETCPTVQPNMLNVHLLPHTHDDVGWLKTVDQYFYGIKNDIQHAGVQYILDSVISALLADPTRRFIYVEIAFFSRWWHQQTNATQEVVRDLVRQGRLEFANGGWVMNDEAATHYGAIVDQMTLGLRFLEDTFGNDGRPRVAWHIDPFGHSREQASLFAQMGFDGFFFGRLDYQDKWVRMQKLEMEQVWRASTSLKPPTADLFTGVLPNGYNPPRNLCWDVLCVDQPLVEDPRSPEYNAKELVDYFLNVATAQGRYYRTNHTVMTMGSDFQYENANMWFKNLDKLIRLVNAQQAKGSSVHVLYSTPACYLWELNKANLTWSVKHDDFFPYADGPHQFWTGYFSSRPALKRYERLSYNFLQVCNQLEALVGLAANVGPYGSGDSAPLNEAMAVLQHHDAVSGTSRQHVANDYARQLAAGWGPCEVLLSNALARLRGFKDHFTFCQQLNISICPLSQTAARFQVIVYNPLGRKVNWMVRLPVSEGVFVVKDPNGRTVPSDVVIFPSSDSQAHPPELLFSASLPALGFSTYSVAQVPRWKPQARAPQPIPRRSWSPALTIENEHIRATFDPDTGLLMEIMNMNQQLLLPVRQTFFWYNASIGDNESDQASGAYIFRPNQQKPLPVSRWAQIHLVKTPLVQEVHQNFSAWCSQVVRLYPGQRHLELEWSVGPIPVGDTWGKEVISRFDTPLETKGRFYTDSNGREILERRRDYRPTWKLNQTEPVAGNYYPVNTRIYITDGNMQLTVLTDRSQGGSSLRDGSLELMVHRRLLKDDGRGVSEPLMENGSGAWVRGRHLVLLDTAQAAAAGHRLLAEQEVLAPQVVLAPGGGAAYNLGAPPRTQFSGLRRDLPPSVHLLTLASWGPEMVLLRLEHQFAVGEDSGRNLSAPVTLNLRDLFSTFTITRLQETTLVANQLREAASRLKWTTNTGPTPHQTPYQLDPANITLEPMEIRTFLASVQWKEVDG
Protocol: as §3, §1, §2

In the case of `OC[C@H](O)[C@@H]1NC[C@@H](O)[C@H]1O` [DIA, 1,4-dideoxy-1,4-imino-L-allitol], the “inhibition of α-D-mannosidase II (in words)” value (Golgi α-D-mannosidase II) is reported as “potent inhibitor”, the inhibition at 1000 µM (Golgi α-D-mannosidase II) is reported as 95% and the “Inhibition (%)” value (N-acetyl hexosaminidase) is reported as 42%. The “inhibition of lysosomal α-D-mannosidase (in words)” value [1] was “good inhibitor”, the inhibition at 1000 µM [1] was 84% and the Ki ([1]; pH optimum of 4.0, Dixon graphical procedure) was 170 µM.

With `OC[C@H](O)[C@H]1[C@H](O)[C@H](O)CN1Cc1ccccc1` [N-benzyl DIA, N-benzyl-1,4-dideoxy-1,4-imino-L-allitol] the inhibition at 1000 µM (Golgi α-D-mannosidase II) was 0%, the “Inhibition (%)” value (N-acetyl hexosaminidase) was 15% and the inhibition at 1000 µM [1] was 3%.

For `CN1C[C@@H](O)[C@@H](O)[C@@H]1[C@@H](O)CO` [N-methyl DIA, N-methyl-1,4-dideoxy-1,4-imino-L-allitol], the inhibition at 1000 µM (Golgi α-D-mannosidase II) was 33%, the “Inhibition (%)” value (N-acetyl hexosaminidase) was 37% and the inhibition at 1000 µM [1] was 13%.
